Assay results: PMC7099597 (ACS Central Science, 2020)

How the values were obtained:
[1] = test system: 8B10 scFv Rip-3 (anti-MPTS); assay: MPTS fluorescence quenching, protein titration; format: binding
[2] = test system: 4D5Flu Rip-3 (anti-fluorescein scFv); assay: dose-dependent rescue of fluorescein quenching; format: binding, synthetic construct

EC50 [1] [µM] | EC50 [2] [µM] | SMILES
1 |  | COc1cc(S(=O)(=O)O)c2ccc3c(S(=O)(=O)O)cc(S(=O)(=O)O)c4ccc1c2c43 [MPTS, 8-methoxypyrene-1,3,6-trisulfonic acid]
 | 16 | c1ccc(COc2ccc3cn[nH]c3c2)cc1 [Stitch-3, 6-(benzyloxy)indazole]
